We go through 1 compound from patent US20180125835A1, “Dosage and Use of an A2A Antagonist” (H. Lundbeck A/S, priority 2014, published 2018).

For series [1], the target named is T1, A2B (Homo sapiens, UniProt P29275).
T1 sequence (P29275 1-332): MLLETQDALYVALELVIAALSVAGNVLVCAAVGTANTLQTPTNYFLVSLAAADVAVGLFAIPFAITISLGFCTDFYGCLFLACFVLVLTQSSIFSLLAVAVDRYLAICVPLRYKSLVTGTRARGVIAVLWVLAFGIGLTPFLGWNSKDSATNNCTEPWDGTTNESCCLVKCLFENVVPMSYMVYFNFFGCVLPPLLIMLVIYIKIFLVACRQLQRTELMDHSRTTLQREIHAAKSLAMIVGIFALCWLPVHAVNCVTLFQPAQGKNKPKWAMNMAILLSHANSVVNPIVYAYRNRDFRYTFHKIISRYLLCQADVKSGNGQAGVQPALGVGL
In words: Adenosine receptor binding affinity, human A2B.

Series [2] has as its target T2, A1 receptor (Mus musculus, UniProt Q60612).
T2 sequence (Q60612 1-326): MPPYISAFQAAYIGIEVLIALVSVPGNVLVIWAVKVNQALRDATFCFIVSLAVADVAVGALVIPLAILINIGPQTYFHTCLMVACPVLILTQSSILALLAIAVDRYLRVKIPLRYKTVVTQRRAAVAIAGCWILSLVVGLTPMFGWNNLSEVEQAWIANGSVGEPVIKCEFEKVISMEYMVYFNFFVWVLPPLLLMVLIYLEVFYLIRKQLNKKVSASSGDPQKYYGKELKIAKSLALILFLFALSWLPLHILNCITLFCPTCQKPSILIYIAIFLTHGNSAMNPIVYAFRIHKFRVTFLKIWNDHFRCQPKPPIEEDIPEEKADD
In words: Adenosine receptor binding affinity, mouse A1.

In series [3] the test system is MPTP-lesion marmosets. The series is described as follows: Disability reversal score in MPTP-lesion marmosets, PK/PD modelling. It counts as in vivo, marmoset. The following applies: MPTP-treated marmosets, 0.1-3 mg/kg, Emax PK/PD modelling. As to the method: Marmosets received several MPTP regimens (single MPTP regimen: 2 mg/kg, s.c., per day for 3 consecutive days) before the marmosets were used for PK/PD measurements.
In the absence of any striatal occupancy data in marmoset to relate plasma concentration needed for EC80 A2A occupancy for human dose projection, a daily dose range of 3-24 mg was established based on predicted EC50-80 plasma concentrations of rat striatal occupancy and marmoset disability reversal score.

The target in series [4] is A2A receptor (Rattus norvegicus, UniProt P30543). The series is described as follows: Reversal of CGS21680-induced hypolocomotion. It counts as in vivo. The method, then: Doses of 0.01, 0.03, 0.06, 0.1 mg/kg were tested in a dosage form of 0.5 w/v % methyl cellulose 400 (viscosity: 400 cP) in distilled water. Drug was administered at a volume of 5 ml/kg, oral.
Sixty (60) male Long Evans rats, 3 months age, were allocated into 6 groups of N=10 rats per group.
The activity test, monitoring the rat's spontaneous activity was measured in the automated
Med Associates activity test chamber for 20 minutes. The tracking arena was of dimension 17′W×17″L×12″H, sensor bars were secured 1″ above the floor to track distance travelled, and a second set of sensor bars were placed 6″ above the floor to measure vertical movement and rearing activity. The parameters set on the tracking software were: resolution—50 ms, box size—4 beams, resting delay—500 ms, and ambulatory trigger—2.

Series [5] can be described thus: Plasma exposure in Long Evans rats. It counts as in vivo. Conditions: rat. As to the method:
A minimum of 400 μL of whole blood was collected via saphenous bleed at 10 min, 20 min, 60 min, and 120 min post drug administration, i.e. at time points that coincided with the activity study (and phase 2: 5-choice experiments). Blood was collected and transferred into K3 EDTA tubes. The tubes were allowed to sit at room temperature for approximately 2 minutes and placed on wet ice until centrifugation. Blood was spun in the centrifuge with speed of 3,500 rpm for 15 minutes at 4° C. Plasma was separated and placed into a labeled 0.75 ml Matrix tube and capped. Plasma tubes were placed into a Matrix rack and stored in a −80° C. freezer. At the final time point (120 minutes post drug administration) following blood collection by cardiac puncture, the brain tissue was extracted and hemisected along the midline. One hemisphere, without the cerebellum, was placed in the 15 ml pre-weighed brain tube while the other portion was disposed. The brain tubes were weighed, frozen on dry ice, and stored at −80 C. Brain tissue and plasma samples were shipped on dry ice to Sponsor. Blood and brain levels of compound 504 were to be conducted by the Sponsor.

In series [6] the test system is Long Evans rats. The series is described as follows: Locomotor activity in habituated rats. It counts as in vivo, rat. The text has this: Sixteen (16) male Long Evans rats were habituated to Med Associates test activity chambers (17″ W×17″ L×12″ H) over three, 90-minute sessions. […] Total distance travelled and rearing counts for the total session were the primary measure.

Chain of A2A receptor (P30543 whole entry): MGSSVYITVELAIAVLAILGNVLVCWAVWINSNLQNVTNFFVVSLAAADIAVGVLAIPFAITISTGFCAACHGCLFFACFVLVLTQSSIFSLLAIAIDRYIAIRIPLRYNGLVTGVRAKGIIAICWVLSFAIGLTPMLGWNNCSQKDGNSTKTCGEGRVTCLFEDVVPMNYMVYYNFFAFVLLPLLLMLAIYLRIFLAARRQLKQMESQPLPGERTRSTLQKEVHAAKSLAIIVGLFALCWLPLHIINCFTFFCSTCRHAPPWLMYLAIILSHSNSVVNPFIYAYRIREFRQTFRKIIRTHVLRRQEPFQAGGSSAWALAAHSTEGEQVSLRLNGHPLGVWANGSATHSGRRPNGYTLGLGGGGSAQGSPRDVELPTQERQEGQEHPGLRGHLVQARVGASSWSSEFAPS

Turning to `Cc1ccc(C(=O)Nc2nc(-c3ccco3)c(C(=O)C3CCOCC3)s2)cn1` [Compound 504], the Ki in series [1] was 33.8 ± 5.91 nM; in series [2] it was 31.1 ± 1.09 nM. For the same compound, the “EC80 plasma concentration for disability reversal score” value in series [3] came out at 0.175 µg/mL. Besides, the “reversal of CGS-induced hypolocomotion” value in series [4] (0.1 mg/kg oral) was “completely reversed”. In addition, the “reversal of CGS-hypolocomotion (distance travelled, rearing, ambulatory episodes)” value in series [4] (0.06 and 0.1 mg/kg doses) is reported as “significantly reversed”. In series [4] (rat, po, read-out: ED50 for antagonism of the CGS-hypolocomotion), the ED50 was approximately 0.06 mg/kg. In addition, in series [5] (oral 0.01-0.1 mg/kg), the plasma concentrations lay within 100 to 450 ng/mL. The compound further displayed a plasma levels in series [5] (oral 0.03-0.1 mg/kg, 60 min and 90 min sampling) of 150 to 400 ng/mL. Also, the “locomotor activity (distance travelled and rearing counts)” value in series [6] (0.01-1 mg/kg oral, 90 min test session) is listed as “dose related increase”. In series [6] (90 min session, all doses), the “timecourse of locomotor activity changes” value is reported as “peaked during the first 10 min timebin”. For the same compound, the “dose at which magnitude of locomotor effect plateaued” value in series [6] (oral, 90 min session) is 0.06 to 0.1 mg/kg. The “effect size on locomotor activity compared with amphetamine (1 mg/kg IP)” value in series [6] (same study) was “significantly less”.

The Ki is the equilibrium dissociation constant of an inhibitor or competing ligand from its target. A high value points to weaker binding. As a reminder, the ED50 is the midpoint of the dose-response relation.
